# Assay results reported in patent US20100298141A1, “SUBSTITUTED PYRIDINE N-OXIDE HERBICIDES” (E. I. DU PONT DE NEMOURS AND COMPANY, priority 2007, published 2010).
# Key:
# velvetleaf [1] = test: Test C pre-/postemergence test; format: in vivo, Abutilon theophrasti; conditions: for Plant response rating, Velvetleaf: 31 g ai/ha, scale 0 to 100 (0 no effect, 100 complete control)
# Summary of the method: (§1)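 Seeds were planted and treated preemergence with test chemical in a non-phytotoxic solvent mixture containing surfactant. Postemergence applications of the same formulation went onto plants 2 to 18 cm tall (1- to 4-leaf stage). A dash marks no test result.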
# green foxtail = test: Test C pre-/postemergence test; format: in vivo, Setaria viridis; conditions: for Plant response rating, Foxtail, Green: 31 g ai/ha, scale 0 to 100 (0 no effect, 100 complete control)
# Summary of the method: as §1
# kochia = test: Test C pre-/postemergence test; format: in vivo, Kochia scoparia
# Summary of the method: as §1
# lambsquarters = test: Test C pre-/postemergence test; format: in vivo, Chenopodium album; conditions: for Plant response rating, Lambsquarters: 31 g ai/ha, scale 0 to 100 (0 no effect, 100 complete control)
# Summary of the method: as §1
# wild oat = test: Test C pre-/postemergence test; format: in vivo, Avena fatua; conditions: for Plant response rating, Oat, Wild: 31 g ai/ha, scale 0 to 100 (0 no effect, 100 complete control)
# Summary of the method: as §1
# crabgrass = test: Test C pre-/postemergence test; format: in vivo, Digitaria sanguinalis; conditions: for Plant response rating, Crabgrass, Large: 31 g ai/ha, scale 0 to 100 (0 no effect, 100 complete control)
# Summary of the method: as §1
# duck salad = test: Test C flooded paddy test; format: in vivo, Heteranthera limosa; conditions: Flood
# Summary of the method: (§2)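 In-water treatment: compound dosed into 3 cm flood over soil, water level unchanged throughout. Controls run alongside; visual assessment at day 13–15.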
# giant foxtail = test: Test C pre-/postemergence test; format: in vivo, Setaria faberii; conditions: for Plant response rating, Foxtail, Giant: 31 g ai/ha, scale 0 to 100 (0 no effect, 100 complete control)
# Summary of the method: as §1
# johnsongrass = test: Test C pre-/postemergence test; format: in vivo, Sorghum halepense; conditions: for Plant response rating, Johnsongrass: 31 g ai/ha, scale 0 to 100 (0 no effect, 100 complete control)
# Summary of the method: as §1
# eastern black nightshade = test: Test C pre-/postemergence test; format: in vivo, Solanum ptycanthum; conditions: for Plant response rating, Nightshade: 31 g ai/ha, scale 0 to 100 (0 no effect, 100 complete control)
# Summary of the method: as §1
# Surinam grass = test: Test C pre-/postemergence test; format: in vivo, Brachiaria decumbens; conditions: for Plant response rating, Surinam Grass: 31 g ai/ha, scale 0 to 100 (0 no effect, 100 complete control)
# Summary of the method: as §1
# downy brome = test: Test C pre-/postemergence test; format: in vivo, Bromus tectorum; conditions: for Plant response rating, Bromegrass, Downy: 31 g ai/ha, scale 0 to 100 (0 no effect, 100 complete control)
# Summary of the method: as §1
# velvetleaf [2] = test: Test A pre-/postemergence greenhouse test; format: in vivo, Abutilon theophrasti; conditions: for Plant response rating, Velvetleaf: 0 to 100 scale where 0 is no effect and 100 is complete control; for Velvetleaf plant response rating: 0 to 100 scale
# Summary of the method: (§3)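 Each test compound, dissolved in a non-phytotoxic solvent mixture with surfactant, was sprayed directly onto seeded soil (loam/sand blend) and, at the same moment, onto seedlings carrying one to two leaves. Around ten greenhouse days later, plants were rated visually for injury relative to untreated controls.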
# cocklebur = test: Test C pre-/postemergence test; format: in vivo, Xanthium strumarium; conditions: for Plant response rating, Cocklebur: 31 g ai/ha, scale 0 to 100 (0 no effect, 100 complete control)
# Summary of the method: as §1
# redroot pigweed = test: Test A pre-/postemergence greenhouse test; format: in vivo, Amaranthus retroflexus; conditions: for Plant response rating, Pigweed: 0 to 100 scale where 0 is no effect and 100 is complete control; for Pigweed plant response rating: 0 to 100 scale
# Summary of the method: as §3
# barnyardgrass = test: Test A pre-/postemergence greenhouse test; format: in vivo, Echinochloa crus-galli; conditions: for Plant response rating, Barnyardgrass: 0 to 100 scale where 0 is no effect and 100 is complete control; for Barnyardgrass plant response rating: 0 to 100 scale
# Summary of the method: as §3
# rice = test: Test C flooded paddy test; format: in vivo, Oryza sativa; conditions: Flood
# Summary of the method: as §2
# common ragweed = test: Test C pre-/postemergence test; format: in vivo, Ambrosia elation; conditions: for Plant response rating, Ragweed: 31 g ai/ha, scale 0 to 100 (0 no effect, 100 complete control)
# Summary of the method: as §1
# [3] = 62 g ai/ha, Preemergence, scale 0 to 100
# [4] = 125 g ai/ha, preemergence, scale 0 (no effect) to 100 (complete control)
# [5] = preemergence, 250 g ai/ha, scale 0 (no effect) to 100 (complete control)
# [6] = 62 g ai/ha, scale 0 to 100 (0 no effect, 100 complete control)
# [7] = 250 g ai/ha, scale 0 to 100, 0 no effect, 100 complete control, 13 to 15 days
# [8] = Postemergence, 500 g ai/ha, 0 is no effect, 100 is complete control
# [9] = Preemergence, 125 g ai/ha, 0 no effect, 100 complete control
# [10] = Preemergence, 500 g ai/ha, 0 no effect, 100 complete control
# [11] = 31 g ai/ha, scale 0 to 100 (0 no effect, 100 complete control)
# [12] = 125 g ai/ha, scale 0 to 100, 0 no effect, 100 complete control, 13 to 15 days
structure (smiles),measurement,setting,value
C#CCOc1c(CS(=O)(=O)c2cccc[n+]2[O-])c(C(F)(F)F)nn1C [Compound 103],Velvetleaf plant response rating,velvetleaf [1]; [3],55
same,Velvetleaf plant response rating,velvetleaf [1]; [4],80
same,"Plant response rating, Velvetleaf",velvetleaf [1]; Preemergence,0
same,Velvetleaf plant response rating,velvetleaf [1]; [5],100
same,"Foxtail, Green plant response rating",green foxtail; [3],98
same,"Foxtail, Green plant response rating",green foxtail; [4],100
same,"Plant response rating, Foxtail, Green",green foxtail; Preemergence,60
same,"Foxtail, Green plant response rating",green foxtail; [5],100
same,Kochia plant response rating,kochia; [3],0
same,Kochia plant response rating,kochia; [4],100
same,Kochia plant response rating,kochia; [5],100
same,Lambsquarters plant response rating,lambsquarters; [3],50
same,Lambsquarters plant response rating,lambsquarters; [4],50
same,"Plant response rating, Lambsquarters",lambsquarters; Preemergence,10
same,Lambsquarters plant response rating,lambsquarters; [5],95
same,"Oat, Wild plant response rating",wild oat; [3],60
same,"Oat, Wild plant response rating",wild oat; [4],100
same,"Plant response rating, Oat, Wild",wild oat; Preemergence,40
same,"Oat, Wild plant response rating",wild oat; [5],100
same,"Crabgrass, Large plant response rating",crabgrass; [3],98
same,"Crabgrass, Large plant response rating",crabgrass; [4],100
same,"Plant response rating, Crabgrass, Large",crabgrass; Preemergence,90
same,"Crabgrass, Large plant response rating",crabgrass; [5],100
same,"Plant response rating, Ducksalad",duck salad; [6],20
same,"Plant response rating, Ducksalad",duck salad; [7],70
same,"Foxtail, Giant plant response rating",giant foxtail; [3],95
same,"Foxtail, Giant plant response rating",giant foxtail; [4],100
same,"Plant response rating, Foxtail, Giant",giant foxtail; Preemergence,55
same,"Foxtail, Giant plant response rating",giant foxtail; [5],100
same,Johnsongrass plant response rating,johnsongrass; [3],100
same,Johnsongrass plant response rating,johnsongrass; [4],100
same,"Plant response rating, Johnsongrass",johnsongrass; Preemergence,30
same,Johnsongrass plant response rating,johnsongrass; [5],100
same,Nightshade plant response rating,eastern black nightshade; [3],90
same,Nightshade plant response rating,eastern black nightshade; [4],90
same,"Plant response rating, Nightshade",eastern black nightshade; Preemergence,90
same,Nightshade plant response rating,eastern black nightshade; [5],98
same,Surinam Grass plant response rating,Surinam grass; [3],80
same,Surinam Grass plant response rating,Surinam grass; [4],90
same,"Plant response rating, Surinam Grass",Surinam grass; Preemergence,0
same,Surinam Grass plant response rating,Surinam grass; [5],95
same,"Bromegrass, Downy plant response rating",downy brome; [3],0
same,"Bromegrass, Downy plant response rating",downy brome; [4],70
same,"Plant response rating, Bromegrass, Downy",downy brome; Preemergence,0
same,"Bromegrass, Downy plant response rating",downy brome; [5],70
same,"Plant response rating, Velvetleaf","velvetleaf [2]; Postemergence, 125 g ai/ha",40
same,Velvetleaf plant response rating,velvetleaf [2]; [8],70
same,Velvetleaf plant response rating,velvetleaf [2]; [9],20
same,Velvetleaf plant response rating,velvetleaf [2]; [10],80
same,Cocklebur plant response rating,cocklebur; [3],0
same,Cocklebur plant response rating,cocklebur; [4],0
same,"Plant response rating, Cocklebur",cocklebur; Preemergence,0
same,Cocklebur plant response rating,cocklebur; [5],30
same,"Plant response rating, Pigweed","redroot pigweed; Postemergence, 125 g ai/ha",30
same,Pigweed plant response rating,redroot pigweed; [8],60
same,Pigweed plant response rating,redroot pigweed; [9],60
same,Pigweed plant response rating,redroot pigweed; [10],100
same,"Plant response rating, Barnyardgrass","barnyardgrass; Postemergence, 125 g ai/ha",80
same,Barnyardgrass plant response rating,barnyardgrass; [8],90
same,Barnyardgrass plant response rating,barnyardgrass; [9],90
same,Barnyardgrass plant response rating,barnyardgrass; [10],100
same,"Plant response rating, Rice",rice; [6],0
same,"Plant response rating, Rice",rice; [7],0
same,Ragweed plant response rating,common ragweed; [3],0
same,Ragweed plant response rating,common ragweed; [4],80
same,"Plant response rating, Ragweed",common ragweed; Preemergence,0
same,Ragweed plant response rating,common ragweed; [5],85
CC(C)c1cc[n+]([O-])c([S+]([O-])Cc2c(C(F)(F)F)nn(C)c2OC(F)F)c1 (stereo not shown) [Compound 109],Velvetleaf plant response rating,velvetleaf [1]; [3],80
same,Velvetleaf plant response rating,velvetleaf [1]; [4],98
same,"Plant response rating, Velvetleaf",velvetleaf [1]; Preemergence,10
same,Velvetleaf plant response rating,velvetleaf [1]; [5],100
same,"Foxtail, Green plant response rating",green foxtail; [3],95
same,"Foxtail, Green plant response rating",green foxtail; [4],100
same,"Plant response rating, Foxtail, Green",green foxtail; Preemergence,50
same,"Foxtail, Green plant response rating",green foxtail; [5],100
same,Kochia plant response rating,kochia; [3],90
same,Kochia plant response rating,kochia; [4],100
same,"Plant response rating, Kochia","kochia; Preemergence, 31 g ai/ha, scale 0 to 100 (0 no effect, 100 complete control)",80
same,Kochia plant response rating,kochia; [5],100
same,Lambsquarters plant response rating,lambsquarters; [3],100
same,Lambsquarters plant response rating,lambsquarters; [4],100
same,"Plant response rating, Lambsquarters",lambsquarters; Preemergence,100
same,Lambsquarters plant response rating,lambsquarters; [5],100
same,"Oat, Wild plant response rating",wild oat; [3],70
same,"Oat, Wild plant response rating",wild oat; [4],90
same,"Plant response rating, Oat, Wild",wild oat; Preemergence,50
same,"Oat, Wild plant response rating",wild oat; [5],98
same,"Crabgrass, Large plant response rating",crabgrass; [3],100
same,"Crabgrass, Large plant response rating",crabgrass; [4],100
same,"Plant response rating, Crabgrass, Large",crabgrass; Preemergence,80
same,"Crabgrass, Large plant response rating",crabgrass; [5],100
same,"Plant response rating, Ducksalad",duck salad; [11],0
same,"Plant response rating, Ducksalad",duck salad; [6],40
same,"Plant response rating, Ducksalad",duck salad; [12],45
same,"Plant response rating, Ducksalad",duck salad; [7],65
same,"Foxtail, Giant plant response rating",giant foxtail; [3],100
same,"Foxtail, Giant plant response rating",giant foxtail; [4],100
same,"Plant response rating, Foxtail, Giant",giant foxtail; Preemergence,100
same,"Foxtail, Giant plant response rating",giant foxtail; [5],100
same,Johnsongrass plant response rating,johnsongrass; [3],100
same,Johnsongrass plant response rating,johnsongrass; [4],100
same,"Plant response rating, Johnsongrass",johnsongrass; Preemergence,85
same,Johnsongrass plant response rating,johnsongrass; [5],100
same,Nightshade plant response rating,eastern black nightshade; [3],80
same,Nightshade plant response rating,eastern black nightshade; [4],95
same,"Plant response rating, Nightshade",eastern black nightshade; Preemergence,20
same,Nightshade plant response rating,eastern black nightshade; [5],100
same,Surinam Grass plant response rating,Surinam grass; [3],95
same,Surinam Grass plant response rating,Surinam grass; [4],100
same,"Plant response rating, Surinam Grass",Surinam grass; Preemergence,50
same,Surinam Grass plant response rating,Surinam grass; [5],100
same,"Bromegrass, Downy plant response rating",downy brome; [3],40
same,"Bromegrass, Downy plant response rating",downy brome; [4],95
same,"Plant response rating, Bromegrass, Downy",downy brome; Preemergence,40
same,"Bromegrass, Downy plant response rating",downy brome; [5],100
same,"Plant response rating, Velvetleaf","velvetleaf [2]; Postemergence, 125 g ai/ha",60
same,Velvetleaf plant response rating,velvetleaf [2]; [8],80
same,Velvetleaf plant response rating,velvetleaf [2]; [9],50
same,Velvetleaf plant response rating,velvetleaf [2]; [10],100
same,Cocklebur plant response rating,cocklebur; [3],0
same,Cocklebur plant response rating,cocklebur; [4],0
same,"Plant response rating, Cocklebur",cocklebur; Preemergence,0
same,Cocklebur plant response rating,cocklebur; [5],60
same,"Plant response rating, Pigweed","redroot pigweed; Postemergence, 125 g ai/ha",60
same,Pigweed plant response rating,redroot pigweed; [8],90
same,Pigweed plant response rating,redroot pigweed; [9],100
same,Pigweed plant response rating,redroot pigweed; [10],100
same,"Plant response rating, Barnyardgrass","barnyardgrass; Postemergence, 125 g ai/ha",80
same,Barnyardgrass plant response rating,barnyardgrass; [8],90
same,Barnyardgrass plant response rating,barnyardgrass; [9],70
same,Barnyardgrass plant response rating,barnyardgrass; [10],100
same,"Plant response rating, Rice",rice; [11],0
same,"Plant response rating, Rice",rice; [6],0
same,"Plant response rating, Rice",rice; [12],0
same,"Plant response rating, Rice",rice; [7],20
same,Ragweed plant response rating,common ragweed; [3],50
same,Ragweed plant response rating,common ragweed; [4],55
same,"Plant response rating, Ragweed",common ragweed; Preemergence,50
same,Ragweed plant response rating,common ragweed; [5],80
